Experimental findings from US7423009B2, “Method for treatment of kidney diseases” (Kowa Company, Ltd., priority 2002, dated 2008) are described below.

The experiment deals with nephritis induced by anti-GBM antiserum in wild type mouse. Briefly: Nephritis induced by anti-GBM antiserum in wild type mice: amount of albumin in urine. Format: in vivo. The following applies: for amount of albumin in urine: urine collected 18 hours after final administration. As to the method:
Anti-GBM antiserum was administered to the wild type mice to induce nephritis, the mice were classified into three groups and the first group was administered with a peptide having an amino acid sequence of SLIGRL which is a selective stimulant for PAR-2 while the second group was administered with prednisolone which has been used as a treating agent for nephritis. In each group, administration was conducted once daily for consecutive seven days. The third group was a group which was not treated with a drug (control group). Further, for comparison, another untreated group where no anti-GBM antiserum was administered was prepared as the fourth group (in each group, n=6).
Immediately after the final administration of the drug solution, urine was collected for 18 hours and the amount of albumin in urine was measured.
In the same manner, anti-GBM antiserum was administered to the wild type mice to induce nephritis, the mice were classified into three groups and the first group was administered with ASKH95 which is a selective stimulant for PAR-2 while the second group was administered with prednisolone which has been used as a treating agent for nephritis. In each group, administration was conducted once daily for consecutive seven days. The third group was a group which was not treated with a drug (control group) (in each group, n=6).
Nephritis was induced by a single administration of […] having about 16-fold of titer of antibody in an amount of 0.4 ml per mouse into tail vein (Jpn. J. Pharmacol., 33, 1145-1154, 1983). With regard to the amount of albumin in urine used as an index for nephritis, the amount of albumin in urine collected for 18 hours using a metabolic cage (manufactured by Sugiyamagen) was determined using an ELISA kit manufactured by Exocel and expressed in terms of μg/18 hours/100 g body weight. The resulting data were analyzed by a Student t-test and evaluated.
(§1) Anti-GBM antiserum was administered to a wild type mouse and, immediately after that, 0.3 μmol/kg of SLIGRL which is a selective stimulant for PAR-2 dissolved in a phosphate buffer or 3 mg/kg of prednisolone suspended in 0.5% methyl cellulose solution was administered thereto once daily for consecutive seven days (in each group, n=6). SLIGRL was administered to tail vein with a dose of 1 ml/100 g body weight at the rate of 0.1 ml/second. Prednisolone was compulsorily administered per os with a dose of 1 ml/100 g body weight. As a control, a group which was not treated with a drug (control group) was set up. As from immediately after the final administration of the drug solution, urine was collected for 18 hours using a metabolic cage and the amount of albumin in urine was measured.
as §1, with “In the same manner as example 3, anti-GBM” for “Anti-GBM”, “10 mg/kg” for “0.3 μmol/kg”, “ASKH95” for “SLIGRL”, “measured. Incidentally, ASKH95 is synthesized according to the literature (J. Clin. Invest. 111, 35-41, 2003), and used.” for “measured.”

For the compound 2-furoyl-LIGKV-OH [ASKH95], under “Example 4, ASKH95 10 mg/kg to tail vein once daily for seven days”, the “effect on amount of albumin in urine compared with control group (in words)” value is “decreased significantly”. Besides, the “amount of albumin in urine” value (Example 4, ASKH95 10 mg/kg to tail vein once daily for seven days, control group 81319.0±8884.3) was 34709.6±8703.3 μg/18 hours/100 g body weight.

Regarding `C[C@]12C=CC(=O)C=C1CC[C@@H]1[C@@H]2[C@@H](O)C[C@@]2(C)[C@H]1CC[C@]2(O)C(=O)CO` [prednisolone], the “amount of albumin in urine reduced to an extent of % of the control group” value (Example 3, prednisolone 3 mg/kg per os once daily for seven days, not a significant suppression) was 52.7%. Also, the “amount of albumin in urine” value (Example 3, prednisolone 3 mg/kg per os once daily for seven days, control group 3528.5±1238.6) is on record as 1670.6±579.4 μg/18 hours/100 g body weight and the “amount of albumin in urine” value (Example 4, prednisolone 3 mg/kg per os once daily for seven days, control group 81319.0±8884.3) was 75692.1±12846.9 μg/18 hours/100 g body weight. In addition, the “effect on amount of albumin in urine compared with control group (in words)” value (Example 4, prednisolone 3 mg/kg per os once daily for seven days) is reported as “almost no effect”.

As for SLIGRL, the “amount of albumin in urine” value (Example 3, SLIGRL 0.3 μmol/kg to tail vein once daily for seven days, control group 3528.5±1238.6) is recorded as 104.2±54.0 μg/18 hours/100 g body weight. Moreover, the “decrease of amount of albumin in urine” value (Example 3, SLIGRL 0.3 μmol/kg to tail vein once daily for seven days, versus control group, significant) is reported as 97.0%.
